The text below walks through data of patent US20130156728A1, “COMPOSITION FOR NEUROLOGICAL OR AUTOIMMUNE DISEASES” (National Institutes of Health (NIH), U.S. Dept. of Health …, priority 2010, published 2013).

Series [1] concerns mice. The experiment in a line: Characterization of subacute MPTP model (striatal dopamine, splenocyte counts). Type of series: in vivo, mouse. The method, then: To establish a subacute MPTP model, we tested administration of 10 mg/kg/day and 20 mg/kg/day MPTP for consecutive 5 days.
Data are represented as mean±SEM.

Series [2] relates to humans with type 1 diabetes. Particulars: injections; cited from earlier work.
In series [3] the test system is mouse models of Alzheimer's disease. Particulars: without adjuvant; cited from earlier work.
Series [4] relates to chronic MPTP model. The experiment in a line: Vaccination in chronic MPTP model (striatal DA and DAT). It counts as in vivo, C57BL/6 mice.

Turning to `CN1CC=C(c2ccccc2)CC1` [MPTP, 1-Methyl-4-Phenyl-1,2,3,6-Tetrahydro-Pyridine], in series [1] (10 mg/kg/day MPTP for 5 days, four days after the last treatment), the “effect on striatal dopamine levels” value is given as “no obvious effect”. Besides, in series [1] (20 mg/kg/day MPTP for 5 days, four days after the last treatment), the “decrease of striatal dopamine level compared to PBS treated mice” value is on record as 70%. Moreover, the “effect on splenocyte counts (immunotoxicity)” value in series [1] (subacute MPTP, 10 and 20 mg/kg/day for 5 days) is given as “did not affect”.

Take “GAD65: isoform of glutamic acid decarboxylase, 65 kDa”: the “preservation of some insulin production” value in series [2] is given as 30 months.

As to “glatiramer acetate [Copaxone (without adjuvant)]”, the “effect in mouse models of Alzheimer's disease” value in series [3] is “beneficial”. Also, in series [4], the “protection of striatal dopamine (DA) and dopamine transporter (DAT)” value is reported as “no protective effect”.
